Two molecules from ChEMBL document CHEMBL1137923, “Identification of CJC-1131-albumin bioconjugate as a stable and bioactive GLP-1(7-36) analog” (Bioorg Med Chem Lett, 2004) can be followed below.

Test [1] addresses T1, Glucagon-like peptide 1 receptor (Homo sapiens, UniProt P43220). Description: Effective concentration against human GLP1 receptor expressed in CHO cells. The test is classed as cell-based.
Test [2] addresses T1, Glucagon-like peptide 1 receptor. Description: Inhibitory concentration required against human GLP1 receptor expressed in CHO cell membrane homogenates. It counts as cell-based.

T1 sequence (P43220 whole entry): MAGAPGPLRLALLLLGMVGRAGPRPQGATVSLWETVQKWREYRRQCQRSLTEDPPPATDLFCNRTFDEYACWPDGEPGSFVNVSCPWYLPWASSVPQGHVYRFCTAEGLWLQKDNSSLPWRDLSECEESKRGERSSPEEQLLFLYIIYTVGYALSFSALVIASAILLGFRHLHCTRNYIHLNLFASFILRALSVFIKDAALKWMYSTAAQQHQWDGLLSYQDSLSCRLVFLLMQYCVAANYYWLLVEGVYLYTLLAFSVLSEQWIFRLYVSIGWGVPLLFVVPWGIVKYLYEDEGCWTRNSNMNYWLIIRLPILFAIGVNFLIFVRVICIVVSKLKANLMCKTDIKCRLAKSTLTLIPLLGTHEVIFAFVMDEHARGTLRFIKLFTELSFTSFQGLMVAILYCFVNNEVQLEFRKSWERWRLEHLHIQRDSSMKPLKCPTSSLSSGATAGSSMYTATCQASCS

Regarding `CC[C@H](C)[C@H](NC(=O)[C@H](CCCCNC(=O)COCCOCCNC(=O)CCN1C(=O)C=CC1=O)NC(=O)[C@H](CCC(=O)O)NC(=O)[C@H](CCCCN)NC(=O)[C@H](C)NC(=O)[C@H](C)NC(=O)[C@H](CCC(N)=O)NC(=O)CNC(=O)[C@H](CCC(=O)O)NC(=O)[C@H](CC(C)C)NC(=O)[C@H](Cc1ccc(O)cc1)NC(=O)[C@H](CO)NC(=O)[C@H](CO)NC(=O)[C@@H](NC(=O)[C@H](CC(=O)O)NC(=O)[C@H](CO)NC(=O)[C@@H](NC(=O)[C@H](Cc1ccccc1)NC(=O)[C@@H](NC(=O)CNC(=O)[C@H](CCC(=O)O)NC(=O)[C@H](C)NC(=O)[C@@H](N)Cc1c[nH]cn1)[C@@H](C)O)[C@@H](C)O)C(C)C)C(=O)N[C@@H](C)C(=O)N[C@@H](Cc1c[nH]c2ccccc12)C(=O)N[C@@H](CC(C)C)C(=O)N[C@H](C(=O)N[C@@H](CCCCN)C(=O)NCC(=O)N[C@@H](CCCN=C(N)N)C(N)=O)C(C)C`, the EC50 (as a rule, the concentration at which the effect is half-maximal) in test [1] was above 1000 nM. For the same molecule, the IC50 – broadly, the concentration that inhibits the measured activity by half – in test [2] was above 10000 nM.

`CC[C@H](C)[C@H](NC(=O)[C@H](Cc1ccccc1)NC(=O)[C@H](CCC(=O)O)NC(=O)[C@H](CCCCN)NC(=O)[C@H](C)NC(=O)[C@H](C)NC(=O)[C@H](CCC(N)=O)NC(=O)CNC(=O)[C@H](CCC(=O)O)NC(=O)[C@H](CC(C)C)NC(=O)[C@H](Cc1ccc(O)cc1)NC(=O)[C@H](CCCCNC(=O)COCCOCCNC(=O)CCN1C(=O)C=CC1=O)NC(=O)[C@H](CO)NC(=O)[C@@H](NC(=O)[C@H](CC(=O)O)NC(=O)[C@H](CO)NC(=O)[C@@H](NC(=O)[C@H](Cc1ccccc1)NC(=O)[C@@H](NC(=O)CNC(=O)[C@H](CCC(=O)O)NC(=O)[C@H](C)NC(=O)[C@@H](N)Cc1c[nH]cn1)[C@@H](C)O)[C@@H](C)O)C(C)C)C(=O)N[C@@H](C)C(=O)N[C@@H](Cc1c[nH]c2ccccc12)C(=O)N[C@@H](CC(C)C)C(=O)N[C@H](C(=O)N[C@@H](CCCCN)C(=O)NCC(=O)N[C@@H](CCCN=C(N)N)C(N)=O)C(C)C` came in with an EC50 in test [1] of 28 nM. In test [2], this molecule returned an IC50 of 713 nM.
